According to US20160150792A1, “WATER PURIFICATION COMPOSITIONS AND APPLICATIONS FOR SAME” (priority 2011, published 2016):

System: mixture of E. coli and P. aeruginosa
Experiment: Disinfection of contaminated surgical instruments and objects
Assay type: cell-based, E. coli (ATCC 11229) and P. aeruginosa (ATCC 15442)
Conditions: immersion 30 minutes; instruments contaminated with 7.0×10^9 bacteria
Method: Cultures: E. coli (ATCC11229) and P. aeruginosa (ATCC15442) from the American Type Culture Collection (ATCC) were grown in Tryptic Soy Broth (TSB) according to the instructions provided by ATCC.
Sterile surgical instruments (probes, scalpel handles, and forceps) and other objects were inoculated with 20 μL of the concentrated culture and allowed to dry for 30 minutes in a laminar flow hood. Contaminated surgical instruments were treated with SAFI (various copper or copper/zinc mixes at pH 3.2 or pH 0.2) by immersing the objects in 40 mL sterile water containing 1, 10, or 100 ppm SAFI for time periods of 30 minutes −22 hours. Comparison treatments included no treatment (control), boiling the instruments in water for 30 minutes, immersing the instruments in 40 mL of 70% EtOH for 30 minutes, or autoclaving the instruments at 15 lbs/in^2 at 121° C. for 20 minutes. […]
The ability of a solution of SAFI to disinfect contaminated surgical instruments was determined by contaminating forceps, scalpel handles, and probes with 20 uL of a concentrated mixture of E. coli and P. aeruginosa and incubating the contaminated instruments in a SAFI solution for 30 minutes. […] Bacteria present after overnight incubation were determined by standard plate counts. […]

## CCO [70% ethanol, ethanol]
  effectiveness in killing bacteria (comparison treatment): effective in killing bacteria
